Data reported in patent publication US11135234B2, “Effective aminoglycoside antibiotic for multidrug-resistant bacteria” (MICROBIAL CHEMISTRY RESEARCH FOUNDATION, priority 2015, dated 2021).
Values after ≈ are worked out from the molar mass of the structure shown.

Assays:
S. aureus RN4220 = assay: MIC, agar plate dilution method, S. aureus RN4220; type: cell-based, Staphylococcus aureus; conditions: S. aureus RN4220, Sensitive bacterium
Summary of the method: (§1)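 Read-out is the lowest compound concentration inhibiting growth (MIC, μg/mL), obtained by the agar plate dilution procedure of the Japan Society of Chemotherapy.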

S. aureus RN4220/pMS520 = assay: MIC, agar plate dilution method, S. aureus RN4220/pMS520; type: cell-based, Staphylococcus aureus; conditions: S. aureus RN4220/pMS520, MRSA
Summary of the method: as §1

S. aureus MF490 = assay: MIC, agar plate dilution method, S. aureus MF490; type: cell-based, Staphylococcus aureus; conditions: S. aureus MF490, MRSA
Summary of the method: as §1

E. faecium ATCC19434 = assay: MIC, agar plate dilution method, E. faecium ATCC19434; type: cell-based, Enterococcus faecium; conditions: E. faecium ATCC19434
Summary of the method: as §1

E. coli JM109/pMW218 = assay: MIC, agar plate dilution method, E. coli JM109/pMW218; type: cell-based, Escherichia coli; conditions: E. coli JM109/pMW218, Sensitive bacterium
Summary of the method: as §1

[1] = test system: K. pneumoniae ATCC BAA-1705; assay: MIC, agar plate dilution method, K. pneumoniae ATCC BAA-1705; type: cell-based, Klebsiella pneumoniae; conditions: K. pneumoniae ATCC BAA-1705, KPC-producing strain
Summary of the method: as §1

[2] = test system: K. pneumoniae ATCC BAA-2146; assay: MIC, agar plate dilution method, K. pneumoniae ATCC BAA-2146; type: cell-based, Klebsiella pneumoniae; conditions: K. pneumoniae ATCC BAA-2146, NDM-producing strain
Summary of the method: as §1

[3] = test system: A. baumannii ATCC BAA-1710; assay: MIC, agar plate dilution method, A. baumannii ATCC BAA-1710; type: cell-based, Acinetobacter baumannii; conditions: A. baumannii ATCC BAA-1710, MDRA
Summary of the method: as §1

S. marcescens TH-0447 = assay: MIC, agar plate dilution method, S. marcescens TH-0447; type: cell-based, Serratia marcescens; conditions: S. marcescens TH-0447, AMK-resistant
Summary of the method: as §1

S. marcescens GN6944 = assay: MIC, agar plate dilution method, S. marcescens GN6944; type: cell-based, Serratia marcescens; conditions: S. marcescens GN6944, GM-resistant
Summary of the method: as §1

P. aeruginosa PAO1 = assay: MIC, agar plate dilution method, P. aeruginosa PAO1; type: cell-based, Pseudomonas aeruginosa; conditions: P. aeruginosa PAO1, Sensitive bacterium
Summary of the method: as §1

P. aeruginosa PAO1/GN315 = assay: MIC, agar plate dilution method, P. aeruginosa PAO1/GN315; type: cell-based, Pseudomonas aeruginosa; conditions: P. aeruginosa PAO1/GN315, AMK-resistant
Summary of the method: as §1

P. aeruginosa MSC17707 = assay: MIC, agar plate dilution method, P. aeruginosa MSC17707; type: cell-based, Pseudomonas aeruginosa; conditions: P. aeruginosa MSC17707, AMK-resistant
Summary of the method: as §1

P. aeruginosa MSC01035 = assay: MIC, agar plate dilution method, P. aeruginosa MSC01035; type: cell-based, Pseudomonas aeruginosa; conditions: P. aeruginosa MSC01035, ABK-resistant
Summary of the method: as §1

SMILES | minimal inhibitory concentration (MIC) (S. aureus RN4220) [µg/mL] | minimal inhibitory concentration (MIC) (S. aureus RN4220/pMS520) [µg/mL] | minimal inhibitory concentration (MIC) (S. aureus MF490) [µg/mL] | minimal inhibitory concentration (MIC) (E. faecium ATCC19434) [µg/mL] | minimal inhibitory concentration (MIC) (E. coli JM109/pMW218) [µg/mL] | minimal inhibitory concentration (MIC) [1] [µg/mL] | minimal inhibitory concentration (MIC) [2] [µg/mL] | minimal inhibitory concentration (MIC) [3] [µg/mL] | minimal inhibitory concentration (MIC) (S. marcescens TH-0447) [µg/mL] | minimal inhibitory concentration (MIC) (S. marcescens GN6944) [µg/mL] | minimal inhibitory concentration (MIC) (P. aeruginosa PAO1) [µg/mL] | minimal inhibitory concentration (MIC) (P. aeruginosa PAO1/GN315) [µg/mL] | minimal inhibitory concentration (MIC) (P. aeruginosa MSC17707) [µg/mL] | minimal inhibitory concentration (MIC) (P. aeruginosa MSC01035) [µg/mL]
CNC1C(OC2OC(CO)C(N)CC2O)OC2CC(N)C(OC3C(N)CC(N)C(O)C3O)OC2C1O (stereo not shown) [Compound M9, 3″-deoxy-5-epiapramycin] | 1 (≈ 1.91 µM) | 2 (≈ 3.82 µM) | 4 (≈ 7.64 µM) | 8 (≈ 15.3 µM) | 1 (≈ 1.91 µM) | 1 (≈ 1.91 µM) | 1 (≈ 1.91 µM) | 4 (≈ 7.64 µM) | 4 (≈ 7.64 µM) | 4 (≈ 7.64 µM) | 2 (≈ 3.82 µM) | 4 (≈ 7.64 µM) | 4 (≈ 7.64 µM) | 4 (≈ 7.64 µM)
CNC1C(OC2OC(CO)C(N)CC2O)OC2CC(N)C(OC3C(N)CC(N)C(O)C3F)OC2C1O (stereo not drawn) [Compound M10, 5,3″-dideoxy-5-epi-5-fluoroapramycin] | 2 (≈ 3.81 µM) | 2 (≈ 3.81 µM) | 8 (≈ 15.2 µM) | 8 (≈ 15.2 µM) | 0.5 (≈ 0.951 µM) | 1 (≈ 1.9 µM) | 1 (≈ 1.9 µM) | 8 (≈ 15.2 µM) | 8 (≈ 15.2 µM) | 4 (≈ 7.61 µM) | 4 (≈ 7.61 µM) | 4 (≈ 7.61 µM) | 4 (≈ 7.61 µM) | 4 (≈ 7.61 µM)
CN[C@@H]1[C@@H](O[C@H]2O[C@H](CO)[C@@H](N)C[C@H]2O)O[C@H]2C[C@@H](N)[C@@H](O[C@@H]3[C@@H](N)C[C@@H](N)C[C@@H]3O)O[C@@H]2[C@@H]1O [Compound N5, 6,3″-dideoxy-5-epiapramycin] | 2 (≈ 3.94 µM) | 2 (≈ 3.94 µM) | 4 (≈ 7.88 µM) | 8 (≈ 15.8 µM) | 1 (≈ 1.97 µM) | 2 (≈ 3.94 µM) | 2 (≈ 3.94 µM) | 8 (≈ 15.8 µM) | 8 (≈ 15.8 µM) | 4 (≈ 7.88 µM) | 4 (≈ 7.88 µM) | 4 (≈ 7.88 µM) | 8 (≈ 15.8 µM) | 8 (≈ 15.8 µM)
CNC1C(OC2OC(CO)C(N)CC2O)OC2CC(N)C(OC3CCC(N)CC3N)OC2C1O (stereo not shown) [Compound N7, 5,6,3″-trideoxyapramycin] | 2 (≈ 4.07 µM) | 2 (≈ 4.07 µM) | 8 (≈ 16.3 µM) | 16 (≈ 32.5 µM) | 1 (≈ 2.03 µM) | 1 (≈ 2.03 µM) | 1 (≈ 2.03 µM) | 8 (≈ 16.3 µM) | 8 (≈ 16.3 µM) | 4 (≈ 8.14 µM) | 4 (≈ 8.14 µM) | 4 (≈ 8.14 µM) | 8 (≈ 16.3 µM) | 8 (≈ 16.3 µM)
CNC1C(OC2OC(CO)C(N)CC2O)OC2CC(N)C(OC3C(N)CC(N)C(O)C3N)OC2C1O (stereo not shown) [Compound N9, 5-amino-5,3″-dideoxy-5-epiapramycin] | 2 (≈ 3.83 µM) | 2 (≈ 3.83 µM) | 8 (≈ 15.3 µM) | 16 (≈ 30.6 µM) | 1 (≈ 1.91 µM) | 2 (≈ 3.83 µM) | 1 (≈ 1.91 µM) | 8 (≈ 15.3 µM) | 8 (≈ 15.3 µM) | 8 (≈ 15.3 µM) | 4 (≈ 7.65 µM) | 4 (≈ 7.65 µM) | 8 (≈ 15.3 µM) | 8 (≈ 15.3 µM)
CN[C@@H]1[C@@H](O[C@@H]2C[C@H](O)[C@H](N)[C@@H](CO)O2)O[C@H]2C[C@@H](N)[C@@H](O[C@H]3[C@@H](F)[C@@H](O)[C@H](N)C[C@@H]3N)O[C@@H]2[C@@H]1O [Compound O5, 5,2″-dideoxy-5,3″-diepi-5-fluoroapramycin] | 1 (≈ 1.9 µM) | 1 (≈ 1.9 µM) | 4 (≈ 7.61 µM) | 8 (≈ 15.2 µM) | 0.5 (≈ 0.951 µM) | 1 (≈ 1.9 µM) | 0.5 (≈ 0.951 µM) | 4 (≈ 7.61 µM) | 4 (≈ 7.61 µM) | 2 (≈ 3.81 µM) | 2 (≈ 3.81 µM) | 2 (≈ 3.81 µM) | 4 (≈ 7.61 µM) | 4 (≈ 7.61 µM)
CN[C@@H]1[C@@H](O[C@H]2O[C@H](CO)[C@@H](N)[C@@H](O)[C@H]2O)O[C@H]2C[C@@H](N)[C@@H](O[C@H]3[C@@H](O)[C@@H](O)[C@H](N)C[C@@H]3N)O[C@@H]2[C@@H]1O [Compound P4, 5,3″-diepiapramycin] | 2 (≈ 3.71 µM) | 2 (≈ 3.71 µM) | 4 (≈ 7.41 µM) | 16 (≈ 29.7 µM) | 2 (≈ 3.71 µM) | 2 (≈ 3.71 µM) | 2 (≈ 3.71 µM) | 8 (≈ 14.8 µM) | 8 (≈ 14.8 µM) | 8 (≈ 14.8 µM) | 4 (≈ 7.41 µM) | 4 (≈ 7.41 µM) | 4 (≈ 7.41 µM) | 8 (≈ 14.8 µM)
CNC1C(OC2OC(C)C(N)C(O)C2O)OC2CC(N)C(OC3C(N)CC(N)CC3O)OC2C1O (stereo not shown) [Compound Q4, 6,6″-dideoxy-5-epiapramycin] | 2 (≈ 3.94 µM) | 1 (≈ 1.97 µM) | 4 (≈ 7.88 µM) | 8 (≈ 15.8 µM) | 0.5 (≈ 0.985 µM) | 1 (≈ 1.97 µM) | 1 (≈ 1.97 µM) | 8 (≈ 15.8 µM) | 4 (≈ 7.88 µM) | 4 (≈ 7.88 µM) | 4 (≈ 7.88 µM) | 4 (≈ 7.88 µM) | 8 (≈ 15.8 µM) | 8 (≈ 15.8 µM)
